Measured values: patent publication US20100016232A1, “Treatment Of Inflammatory Diseases With Mammal Beta Defensins” (Novozymes A/S, priority 2008, published 2010)
Marks after values point to notes of the source that are not given here. Where no end group is shown, it is not given here.

Tests used:
[1] = tested on: IL-1β secretion from PBMC; test: IL-1β secretion from PBMC, ELISA; format: cell-based, human
Experimental: (§1) Peripheral blood was drawn from healthy volunteers (with approval from the relevant ethical committee in Denmark). Heparinized blood was diluted 1/1 v/v with RPMI and were subjected to Ficoll density centrifugation within 2 h of drawing. Plasma was collected from the top from individual donors and was kept on ice until it was used at 2% in the culture medium (autologous culture medium). Isolated PBMC were resuspended in autologous culture medium and seeded in 96-well culture plates with 255.000 cells per well in a total of 200 μl. […] The concentrations used for stimulation were optimized on 3 different donors in initial experiments, for LPS two different concentrations were used to be sure to be on a cytokine level that is possible to modulate. In some experiments PBMC were treated with Dexamethason and Indomethacin alone and together with LPS or LTA as a control on downregulation of inflammatory cytokines. The supernatants were collected after incubation at 37° C. for 24 hours, and stored at −80° C. until cytokine measurement. Viability was measured by Alamar Blue (Biosource, DALL 1100) in all experiments and in some cases also by MTS (Promega) according to manufacturer's instruction and was in some experiments also judged by counting of the cells by a Nucleocounter.
(§2) Cytokine production in supernatants was measured by flow cytometry with a human inflammation cytometric bead array (CBA) according to manufacturer's instructions (BD) on a FACSarray flow cytometer. The following cytokines were measured: IL-8, IL-1β, IL-10, TNF, IL-12 p70, IL-6. In some experiments, cytokines were measured by ELISA kits from R&D systems (IL-10, TNF-α, IL-1β) according to the manufacturer' instruction.
In Tables 6, 7 and 8, supernatants from another donor were analysed for cytokines by ELISA instead of by a cytometric bead array by flowcytometry and here the same were observed, although the sensitivity of the assay is lower and the detection limit much higher and therefore the effects were not as significant.

IL-10, dendritic cells = test: IL-10 from dendritic cells (MUTZ-3 derived) stimulated with LPS or LTA; format: cell-based, human; conditions: dendritic cells stimulated with hBD2 and LPS or hBD2 and LTA; results not shown
Experimental: To generate a dendritoid cell line, the human myeloid leukaemia cell lines MUTZ-3 (1×10^5 cells/ml) was differentiated for 7 days in the presence of rhGM-CSF (150 ng/ml) and rhIL-4 (50 ng/ml) into immature DCs. Medium was exchanged every 2-3 days.
as §2

[2] = tested on: DSS-induced colitis in the mouse; test: 10-day DSS-induced colitis, Disease Activity Index (Example 6); format: in vivo; set-up: key: clinical Disease Activity Index (stool, bleeding, weight loss)
Experimental: Daily clinical assessment of DSS-treated animals was carried out, with the calculation of a validated clinical Disease Activity Index (DAI) ranging from 0 to 4 according to the following parameters: stool consistency, presence or absence of rectal bleeding and weight loss:
Example 6 was carried out essentially as described in Example 5. The differences are indicated below.
Animals were divided into 9 experimental groups.
The animals in group F received one dose i.v. and another dose s.c. (12 hours after the i.v. dose) of the corresponding test item for 10 consecutive days.
The animals in group G received one dose every two days of the corresponding test item for 10 consecutive days.
Methylprednisolone was given orally at a dose of 1 mg/kg (group H) and 10 mg/kg (group J) in a dosing volume of 5 ml/kg body weight, once daily for 10 consecutive days.

PBMC = PBMC viability, MTS assay; format: cell-based, human; conditions: 24 h
Experimental: as §1

hBD2: human beta defensin 2, SEQ ID NO:2; produced recombinantly in E. coli (Example 1); hBD2 of Tables 16-18 was prepared by chemical synthesis (GIGDPVTCLKSGAICHPVFCPRRYKQIGTCGLPGTKCCKKP; ends and bridges not checked; cysteine pairing not given here; listed as Homo sapiens)
IL-1β ([1]; LPS 0.6 ng/ml, hBD2 1 μg/ml): 0.237 ng/mL | IL-1β ([1]; LPS 0.6 ng/ml, hBD2 10 μg/ml): 0.268 ng/mL | IL-1β ([1]; LPS 0.6 ng/ml, hBD2 100 μg/ml): 0.275 ng/mL | IL-1β ([1]; LPS 20 ng/ml, hBD2 1 μg/ml): 0.638 ng/mL | IL-1β ([1]; LPS 20 ng/ml, hBD2 10 μg/ml): 0.354 ng/mL | IL-1β ([1]; LPS 20 ng/ml, hBD2 100 μg/ml): 0.395 ng/mL | IL-1β ([1]; LTA 1.25 μg/ml, hBD2 1 μg/ml): 0.224 ng/mL | IL-1β ([1]; LTA 1.25 μg/ml, hBD2 10 μg/ml): 0.193 ng/mL | IL-1β ([1]; LTA 1.25 μg/ml, hBD2 100 μg/ml): 0.281 ng/mL | IL-10 (IL-10, dendritic cells): induced | DAI score, mean ([2]; Group B, 1 mg/kg i.v., Day 1): 0.00 | DAI score, mean ([2]; Group B, 1 mg/kg i.v., Day 2): 0.10 | DAI score, mean ([2]; Group B, 1 mg/kg i.v., Day 3): 0.20 | DAI score, mean ([2]; Group B, 1 mg/kg i.v., Day 4): 0.40 | DAI score, mean ([2]; Group B, 1 mg/kg i.v., Day 5): 0.30 | DAI score, mean ([2]; Group B, 1 mg/kg i.v., Day 6): 2.30* | DAI score, mean ([2]; Group B, 1 mg/kg i.v., Day 7): 4.40* | DAI score, mean ([2]; Group B, 1 mg/kg i.v., Day 8): 6.89 | DAI score, mean ([2]; Group B, 1 mg/kg i.v., Day 9): 5.00* | DAI score, mean ([2]; Group B, 1 mg/kg i.v., Day 10): 5.78* | DAI score, mean ([2]; Group C, 0.1 mg/kg i.v., Day 1): 0.00 | DAI score, mean ([2]; Group C, 0.1 mg/kg i.v., Day 2): 0.44 | DAI score, mean ([2]; Group C, 0.1 mg/kg i.v., Day 3): 0.89 | DAI score, mean ([2]; Group C, 0.1 mg/kg i.v., Day 4): 0.56 | DAI score, mean ([2]; Group C, 0.1 mg/kg i.v., Day 5): 0.78 | DAI score, mean ([2]; Group C, 0.1 mg/kg i.v., Day 6): 1.56** | DAI score, mean ([2]; Group C, 0.1 mg/kg i.v., Day 7): 4.13* | DAI score, mean ([2]; Group C, 0.1 mg/kg i.v., Day 8): 5.43* | DAI score, mean ([2]; Group C, 0.1 mg/kg i.v., Day 9): 6.29* | DAI score, mean ([2]; Group C, 0.1 mg/kg i.v., Day 10): 6.86 | DAI score, mean ([2]; Group D, 0.01 mg/kg i.v., Day 1): 0.00 | DAI score, mean ([2]; Group D, 0.01 mg/kg i.v., Day 2): 0.00 | DAI score, mean ([2]; Group D, 0.01 mg/kg i.v., Day 3): 0.30 | DAI score, mean ([2]; Group D, 0.01 mg/kg i.v., Day 4): 0.40 | DAI score, mean ([2]; Group D, 0.01 mg/kg i.v., Day 5): 1.60 | DAI score, mean ([2]; Group D, 0.01 mg/kg i.v., Day 6): 2.70 | DAI score, mean ([2]; Group D, 0.01 mg/kg i.v., Day 7): 6.50 | DAI score, mean ([2]; Group D, 0.01 mg/kg i.v., Day 8): 6.20* | DAI score, mean ([2]; Group D, 0.01 mg/kg i.v., Day 9): 4.60*** | DAI score, mean ([2]; Group D, 0.01 mg/kg i.v., Day 10): 5.20** | DAI score, mean ([2]; Group E, 0.001 mg/kg i.v., Day 1): 0.00 | DAI score, mean ([2]; Group E, 0.001 mg/kg i.v., Day 2): 0.00 | DAI score, mean ([2]; Group E, 0.001 mg/kg i.v., Day 3): 0.10 | DAI score, mean ([2]; Group E, 0.001 mg/kg i.v., Day 4): 0.20 | DAI score, mean ([2]; Group E, 0.001 mg/kg i.v., Day 5): 0.40 | DAI score, mean ([2]; Group E, 0.001 mg/kg i.v., Day 6): 3.40 | DAI score, mean ([2]; Group E, 0.001 mg/kg i.v., Day 7): 7.11 | DAI score, mean ([2]; Group E, 0.001 mg/kg i.v., Day 8): 8.56 | DAI score, mean ([2]; Group E, 0.001 mg/kg i.v., Day 9): 5.89** | DAI score, mean ([2]; Group E, 0.001 mg/kg i.v., Day 10): 6.67 | DAI score, mean ([2]; Group F, 0.1 mg/kg twice daily i.v. + s.c., Day 1): 0.00 | DAI score, mean ([2]; Group F, 0.1 mg/kg twice daily i.v. + s.c., Day 2): 0.30 | DAI score, mean ([2]; Group F, 0.1 mg/kg twice daily i.v. + s.c., Day 3): 0.70 | DAI score, mean ([2]; Group F, 0.1 mg/kg twice daily i.v. + s.c., Day 4): 0.70 | DAI score, mean ([2]; Group F, 0.1 mg/kg twice daily i.v. + s.c., Day 5): 0.60 | DAI score, mean ([2]; Group F, 0.1 mg/kg twice daily i.v. + s.c., Day 6): 0.70*** | DAI score, mean ([2]; Group F, 0.1 mg/kg twice daily i.v. + s.c., Day 7): 3.50** | DAI score, mean ([2]; Group F, 0.1 mg/kg twice daily i.v. + s.c., Day 8): 4.00*** | DAI score, mean ([2]; Group F, 0.1 mg/kg twice daily i.v. + s.c., Day 9): 2.90*** | DAI score, mean ([2]; Group F, 0.1 mg/kg twice daily i.v. + s.c., Day 10): 4.50*** | DAI score, mean ([2]; Group G, 0.1 mg/kg i.v. every 2. day, Day 1): 0.00 | DAI score, mean ([2]; Group G, 0.1 mg/kg i.v. every 2. day, Day 2): 0.20 | DAI score, mean ([2]; Group G, 0.1 mg/kg i.v. every 2. day, Day 3): 0.40 | DAI score, mean ([2]; Group G, 0.1 mg/kg i.v. every 2. day, Day 4): 0.50 | DAI score, mean ([2]; Group G, 0.1 mg/kg i.v. every 2. day, Day 5): 0.50 | DAI score, mean ([2]; Group G, 0.1 mg/kg i.v. every 2. day, Day 6): 2.90 | DAI score, mean ([2]; Group G, 0.1 mg/kg i.v. every 2. day, Day 7): 6.50 | DAI score, mean ([2]; Group G, 0.1 mg/kg i.v. every 2. day, Day 8): 8.70 | DAI score, mean ([2]; Group G, 0.1 mg/kg i.v. every 2. day, Day 9): 7.50 | DAI score, mean ([2]; Group G, 0.1 mg/kg i.v. every 2. day, Day 10): 6.56 | Viability, MTS (PBMC; LPS 0.6 ng/ml, hBD2 1 μg/ml): 1.5 Abs 490 nm | Viability, MTS (PBMC; LPS 0.6 ng/ml, hBD2 10 μg/ml): 2.0 Abs 490 nm | Viability, MTS (PBMC; LPS 0.6 ng/ml, hBD2 100 μg/ml): 1.6 Abs 490 nm | Viability, MTS (PBMC; LPS 20 ng/ml, hBD2 1 μg/ml): 1.6 Abs 490 nm | Viability, MTS (PBMC; LPS 20 ng/ml, hBD2 10 μg/ml): 1.8 Abs 490 nm | Viability, MTS (PBMC; LPS 20 ng/ml, hBD2 100 μg/ml): 1.9 Abs 490 nm | Viability, MTS (PBMC; Medium, hBD2 1 μg/ml): 1.3 Abs 490 nm | Viability, MTS (PBMC; Medium, hBD2 10 μg/ml): 1.5 Abs 490 nm | Viability, MTS (PBMC; Medium, hBD2 100 μg/ml): 1.2 Abs 490 nm
